The values that follow come from patent US9808444B2 (BioHealthonomics Inc., priority 2012, dated 2017).

Structures are written as SMILES.

Data set [1] has as its system migraine attacks. The note with it: cited from earlier work.
A further data set deals with migraine headaches. The note with it: one subject, subcutaneous, Table 5 regimen.
Data set [2] relates to migraine attacks. The following applies: subcutaneous 1-10 ng twice a week vs oral sodium valproate 500 mg daily, cited from earlier work.
Data set [3] relates to migraine attacks. The following applies: subcutaneous, twice weekly, 1 μg (0.1 mL) increasing to 10 μg (1.0 mL) over 12 weeks; cited from earlier work.
Data set [4] deals with headache / migraine attack. The note with it: cited from earlier work.
[5] abbreviates: doses of 1 to 3 ng twice a week, P<0.0001.
The mark [6] stands for this setting: migraine subjects, intravenous, 0.5 mg/kg per minute for 20 min.

Regarding `CNCCc1c[nH]cn1` [N^α-methylhistamine], the adverse side effects entry in the data set with migraine attacks [1] (doses greater than 3 ng) is “intense headache”. In the data set with migraine attacks [1] (setting [5]), the “duration of migraine attacks” value is “significantly reduced”, the “frequency of migraine attacks” value was “significantly reduced”, the “intensity of migraine attacks” value is recorded as “significantly reduced” and the “need for rescue analgesics” value is listed as “significantly reduced”.

Take `NCCc1c[nH]cn1` [histamine, 2-(1H-imidazol-4-yl)ethanamine]: in the data set with migraine headaches, the intensity of migraines entry is on record as “drastically reduced”, the quality of life result was “Drastically improved” and the “side effects associated with the regimen” value is listed as “no histamine-induced headaches”. In addition, in the data set with migraine headaches (before the regimen about 3-5 migraines per week), the “frequency of migraines after the dosing regimen” value is given as about 1 migraine every 2 months. Further, in the data set with migraine attacks [2], the “MIDAS versus sodium valproate” value was “No difference” and the “frequency of attacks versus sodium valproate” value was “No difference”. In the data set on migraine attacks [2] (weeks 4, 8, 12, P<0.001), the “analgesic intake versus sodium valproate” value is “significantly greater reduction” and the “intensity of migraine attacks versus sodium valproate” value is “significantly greater reduction”. In the data set with migraine attacks [3], the “decrease in length of migraine attacks” value is given as 45%, the “decrease in pain intensity” value is 51%, the “decrease in painkiller use” value is recorded as 52% and the “reduction of headache frequency” value was 50%. For the same compound, in data set [4] (setting [6]), the “side effect after the infusion” value is given as “delayed migraine attack” and the “side effect during the infusion” value was “immediate headache”.

As for `COc1ccc(CN(CCN(C)C)c2ccccn2)cc1` [mepyramine], the “effect of pre-treatment on histamine-induced headache and delayed migraine attack” value in data set [4] (pre-treatment before intravenous histamine in migraine subjects) was “abolished”.
